{"source": "paper PMC10926851", "about": "(Journal of medicinal chemistry, 2021)", "key": {"HDAC4": {"biological_target": "HDAC4 (Homo sapiens, UniProt P56524)", "sequence (P56524 655-1084 limits assumed)": "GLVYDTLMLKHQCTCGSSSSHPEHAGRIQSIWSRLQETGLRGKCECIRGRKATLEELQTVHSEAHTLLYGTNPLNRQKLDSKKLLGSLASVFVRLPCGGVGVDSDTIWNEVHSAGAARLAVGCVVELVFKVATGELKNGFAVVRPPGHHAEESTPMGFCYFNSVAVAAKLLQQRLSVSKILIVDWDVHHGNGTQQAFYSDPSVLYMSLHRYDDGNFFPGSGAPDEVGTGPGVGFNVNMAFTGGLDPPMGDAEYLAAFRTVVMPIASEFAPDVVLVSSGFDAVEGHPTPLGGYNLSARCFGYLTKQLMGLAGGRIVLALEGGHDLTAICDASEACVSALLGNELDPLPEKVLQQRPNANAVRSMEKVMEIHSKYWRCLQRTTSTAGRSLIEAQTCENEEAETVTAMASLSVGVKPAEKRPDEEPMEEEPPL", "test": "HDAC4 activity assay", "assay_type": "biochemical", "conditions": "HDAC4 vs HDAC8"}, "[1]": {"system": "Ramos (Burkitt's B-cell lymphoma)", "conditions": "selective cytotoxicity index"}, "[2]": {"system": "CEM (T cell leukemia) xenografts", "conditions": "mouse, in vivo"}, "[3]": {"system": "CCRF-CEM (T-cell leukemia)", "conditions": "for SCI (CC50 HS-27/CC50 cancer), CEM: selective cytotoxicity index; for cytotoxicity at 50 μM, CEM (printed in CC50 column): 72 h"}, "CCRF-CEM cells": {"system": "CCRF-CEM cells", "test": "Western blotting", "assay_type": "cell-based, human", "conditions": "10 μM, 5 h"}, "[4]": {"system": "HeLa (cervical adenocarcinoma)", "conditions": "for SCI (CC50 HS-27/CC50 cancer), HeLa: selective cytotoxicity index"}, "[5]": {"system": "HS-27 (normal foreskin fibroblasts)", "test": "DNS cytotoxicity assay, HS-27", "assay_type": "cell-based, human", "conditions": "72 h, noncancerous cells"}, "HDAC8": {"biological_target": "T1, HDAC8 (Homo sapiens, UniProt Q9BY41)", "T1 sequence (Q9BY41 1-377)": "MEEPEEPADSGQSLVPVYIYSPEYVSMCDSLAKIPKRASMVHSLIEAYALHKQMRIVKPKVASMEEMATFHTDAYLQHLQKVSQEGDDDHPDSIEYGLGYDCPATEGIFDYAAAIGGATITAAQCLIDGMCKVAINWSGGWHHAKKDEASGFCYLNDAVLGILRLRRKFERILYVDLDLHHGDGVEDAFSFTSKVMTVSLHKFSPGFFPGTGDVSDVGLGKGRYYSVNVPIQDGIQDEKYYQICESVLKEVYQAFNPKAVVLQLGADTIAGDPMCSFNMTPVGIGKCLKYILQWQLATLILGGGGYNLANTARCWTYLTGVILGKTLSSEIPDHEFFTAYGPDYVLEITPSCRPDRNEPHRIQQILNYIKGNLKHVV", "test": "HDAC8 activity assay", "assay_type": "biochemical", "conditions": "at tested concentrations"}, "[6]": {"system": "HeLa (cervical adenocarcinoma)", "test": "cells", "conditions": "Homo sapiens, 72 h, read-out: % cell death at 10 μM, HeLa"}, "PPARγ": {"biological_target": "T2, PPARγ (Homo sapiens, UniProt P37231)", "T2 sequence (P37231 238-503 limits assumed)": "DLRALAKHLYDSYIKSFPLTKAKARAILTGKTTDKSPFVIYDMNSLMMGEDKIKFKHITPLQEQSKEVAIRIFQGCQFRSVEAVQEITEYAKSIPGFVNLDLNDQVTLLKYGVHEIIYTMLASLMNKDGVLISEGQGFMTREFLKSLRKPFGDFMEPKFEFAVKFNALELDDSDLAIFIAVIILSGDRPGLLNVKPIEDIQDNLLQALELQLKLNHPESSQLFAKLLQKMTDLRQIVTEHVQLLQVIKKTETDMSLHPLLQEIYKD", "test": "PPARγ-GAL4 transactivation assay on HepG2 cells", "assay_type": "cell-based", "conditions": "HepG2, 25, 5 and 1 μM"}}, "note": "Entries after “also recorded” stand apart in the source; their conditions may differ. Read-outs that look alike come from different tables or passages of the source.", "data": [{"compound": "O=C(COc1ccc2cc(/C=C3/SC(=O)NC3=O)ccc2c1)Nc1ccccc1", "note": "[7a, 2-((6-((2,4-Dioxothiazolidin-5-ylidene)methyl)naphthalen-2-yl)-oxy)-N-phenylacetamide]", "values": [{"measurement": "potency toward HDAC4 over HDAC8 (from IC50 values)", "setting": "HDAC4", "result": "at least 2 fold"}]}, {"compound": "O=C(COc1ccc2cc(/C=C3/SC(=O)NC3=O)ccc2c1)Nc1ccc(F)cc1", "note": "[7b, 2-((6-((2,4-Dioxothiazolidin-5-ylidene)methyl)naphthalen-2-yl)-oxy)-N-(4-fluorophenyl)acetamide]", "values": [{"measurement": "potency toward HDAC4 over HDAC8 (from IC50 values)", "setting": "HDAC4", "result": "at least 2 fold"}]}, {"compound": "Cc1ccc(NC(=O)COc2ccc3cc(/C=C4/SC(=O)NC4=O)ccc3c2)cc1", "note": "[7c, 2-((6-((2,4-Dioxothiazolidin-5-ylidene)methyl)naphthalen-2-yl)-oxy)-N-(p-tolyl)acetamide]", "values": [{"measurement": "SCI (CC50 HS-27/CC50 cancer), Ramos", "setting": "[1]", "result": 5.8}, {"measurement": "body weights of the mice", "setting": "[2]", "result": "not significantly affected"}, {"measurement": "SCI (CC50 HS-27/CC50 cancer), CEM", "setting": "[3]", "result": 14.4}, {"measurement": "p53 expression", "setting": "CCRF-CEM cells", "result": "no upregulated expression was observed"}, {"measurement": "c-Myc protein expression", "setting": "CCRF-CEM cells; vs pioglitazone 10 μM", "result": "downregulation of the c-Myc protein much greater than positive control pioglitazone"}, {"measurement": "cleaved caspase-3 expression", "setting": "CCRF-CEM cells; vs pioglitazone 10 μM", "result": "increased expression of cleaved caspase-3"}, {"measurement": "SCI (CC50 HS-27/CC50 cancer), HeLa", "setting": "[4]", "result": 3.9}]}, {"compound": "O=C(COc1ccc2cc(/C=C3/SC(=O)NC3=O)ccc2c1)Nc1cccc(C(F)(F)F)c1", "note": "[7e, 2-((6-((2,4-Dioxothiazolidin-5-ylidene)methyl)naphthalen-2-yl)-oxy)-N-(3-(trifluoromethyl)phenyl) acetamide]", "values": [{"measurement": "% cell death at 10 μM, HS-27", "setting": "[5]", "result": ">40", "unit": "%"}, {"measurement": "HDAC8 inhibition (in words)", "setting": "HDAC8", "result": "did not show HDAC8 inhibition"}]}, {"compound": "O=C(COc1ccc2cc(/C=C3/SC(=O)NC3=O)ccc2c1)Nc1cccc(Cl)c1", "note": "[7f, N-(3-Chlorophenyl)-2-((6-((2,4-dioxothiazolidin-5-ylidene)-methyl)naphthalen-2-yl)oxy)acetamide]", "values": [{"measurement": "SCI (CC50 HS-27/CC50 cancer), Ramos", "setting": "[1]", "result": ">10"}, {"measurement": "HDAC8 inhibition (in words)", "setting": "HDAC8", "result": "did not show HDAC8 inhibition"}]}, {"compound": "COc1cccc(NC(=O)COc2ccc3cc(/C=C4/SC(=O)NC4=O)ccc3c2)c1", "note": "[7g, 2-((6-((2,4-Dioxothiazolidin-5-ylidene)methyl)naphthalen-2-yl)-oxy)-N-(3-methoxyphenyl)acetamide]", "values": [{"measurement": "cytotoxicity at 10 µM", "setting": "[6]", "result": "> 40", "unit": "%"}, {"measurement": "potency toward HDAC4 over HDAC8 (from IC50 values)", "setting": "HDAC4", "result": "at least 2 fold"}, {"measurement": "SCI (CC50 HS-27/CC50 cancer), Ramos", "setting": "[1]", "result": ">10"}, {"measurement": "SCI (CC50 HS-27/CC50 cancer), HeLa", "setting": "[4]", "result": ">10"}]}, {"compound": "O=C(COc1ccc2cc(/C=C3/SC(=O)NC3=O)ccc2c1)Nc1ccc(Cl)c(Cl)c1", "note": "[7h, N-(3,4-Dichlorophenyl)-2-((6-((2,4-dioxothiazolidin-5-ylidene)-methyl)naphthalen-2-yl)oxy)acetamide]", "values": [{"measurement": "HDAC8 inhibition (in words)", "setting": "HDAC8", "result": "inactive; also recorded: not active"}]}, {"compound": "O=C(COc1ccc2cc(/C=C3/SC(=O)NC3=O)ccc2c1)Nc1c(F)cc(F)cc1Br", "note": "[7i, N-(2-Bromo-4,6-difluorophenyl)-2-((6-((2,4-dioxothiazolidin-5-ylidene)methyl)naphthalen-2-yl)oxy)acetamide]", "values": [{"measurement": "SCI (CC50 HS-27/CC50 cancer), Ramos", "setting": "[1]", "result": 4.2}, {"measurement": "SCI (CC50 HS-27/CC50 cancer), CEM", "setting": "[3]", "result": 4.2}, {"measurement": "SCI (CC50 HS-27/CC50 cancer), HeLa", "setting": "[4]", "result": 3.8}, {"measurement": "HDAC8 inhibition (in words)", "setting": "HDAC8", "result": "inactive"}]}, {"compound": "O=C(COc1ccc2cc(/C=C3/SC(=O)NC3=O)ccc2c1)Nc1ccccc1Oc1ccccc1", "note": "[7j, 2-((6-((2,4-Dioxothiazolidin-5-ylidene)methyl)naphthalen-2-yl)-oxy)-N-(2-phenoxyphenyl)acetamide]", "values": [{"measurement": "cytotoxicity at 10 µM", "setting": "[6]", "result": "> 40", "unit": "%"}, {"measurement": "SCI (CC50 HS-27/CC50 cancer), Ramos", "setting": "[1]", "result": ">10"}, {"measurement": "SCI (CC50 HS-27/CC50 cancer), HeLa", "setting": "[4]", "result": ">10"}, {"measurement": "% cell death at 10 μM, HS-27", "setting": "[5]", "result": 0, "unit": "%"}]}, {"compound": "O=C(COc1ccc2cc(/C=C3/SC(=O)NC3=O)ccc2c1)Nc1ccc(F)cc1F", "note": "[7k, N-(2,4-Difluorophenyl)-2-((6-((2,4-dioxothiazolidin-5-ylidene)-methyl)naphthalen-2-yl)oxy)acetamide]", "values": [{"measurement": "HDAC8 inhibition (in words)", "setting": "HDAC8", "result": "inactive"}]}, {"compound": "Cc1cc(Br)ccc1NC(=O)COc1ccc2cc(/C=C3/SC(=O)NC3=O)ccc2c1", "note": "[7l, N-(4-Bromo-2-methylphenyl)-2-((6-((2,4-dioxothiazolidin-5-ylidene)methyl)naphthalen-2-yl)oxy)acetamide]", "values": [{"measurement": "SCI (CC50 HS-27/CC50 cancer), HeLa", "setting": "[4]", "result": ">10"}]}, {"compound": "Cc1cccc(NC(=O)COc2ccc3cc(/C=C4/SC(=O)NC4=O)ccc3c2)n1", "note": "[7n, 2-((6-((2,4-Dioxothiazolidin-5-ylidene)methyl)naphthalen-2-yl)-oxy)-N-(6-methylpyridin-2-yl)acetamide]", "values": [{"measurement": "potency toward HDAC4 over HDAC8 (from IC50 values)", "setting": "HDAC4", "result": "at least 2 fold"}]}, {"compound": "O=C(COc1ccc2cc(/C=C3/SC(=O)NC3=O)ccc2c1)Nc1ccc(Br)cc1", "note": "[7o, N-(4-Bromophenyl)-2-((6-((2,4-dioxothiazolidin-5-ylidene)-methyl)naphthalen-2-yl)oxy)acetamide]", "values": [{"measurement": "SCI (CC50 HS-27/CC50 cancer), HeLa", "setting": "[4]", "result": ">10"}]}, {"compound": "O=C(COc1ccc2cc(/C=C3/SC(=O)NC3=O)ccc2c1)Nc1cc(Cl)cc(C(F)(F)F)c1", "note": "[7p, N-(3-Chloro-5-(trifluoromethyl)phenyl)-2-((6-((2,4-dioxothiazoli-din-5-ylidene)methyl)naphthalen-2-yl)oxy)acetamide]", "values": [{"measurement": "HDAC8 inhibition (in words)", "setting": "HDAC8", "result": "did not show HDAC8 inhibition"}]}, {"compound": "O=C(COc1ccc2cc(/C=C3/SC(=O)NC3=O)ccc2c1)Nc1ccc(Br)cc1F", "note": "[7r, N-(4-Bromo-2-fluorophenyl)-2-((6-((2,4-dioxothiazolidin-5-ylidene)methyl)naphthalen-2-yl)oxy)acetamide]", "values": [{"measurement": "HDAC8 inhibition (in words)", "setting": "HDAC8", "result": "inactive"}]}, {"compound": "O=C(COc1ccc2cc(/C=C3/SC(=O)NC3=O)ccc2c1)Nc1cccc(F)n1", "note": "[7s, 2-((6-((2,4-Dioxothiazolidin-5-ylidene)methyl)naphthalen-2-yl)-oxy)-N-(6-fluoropyridin-2-yl)acetamide]", "values": [{"measurement": "potency toward HDAC4 over HDAC8 (from IC50 values)", "setting": "HDAC4", "result": "at least 2 fold"}]}, {"compound": "Cc1ccc(NC(=O)COc2ccc3cc(/C=C4/SC(=O)NC4=O)ccc3c2)cc1Cl", "note": "[7u, N-(3-Chloro-4-methylphenyl)-2-((6-((2,4-dioxothiazolidin-5-ylidene)methyl)naphthalen-2-yl)oxy)acetamide]", "values": [{"measurement": "HDAC8 inhibition (in words)", "setting": "HDAC8", "result": "not active"}]}, {"compound": "O=C(COc1ccc2cc(/C=C3/SC(=O)NC3=O)ccc2c1)Nc1ccc(Br)c(Br)c1", "note": "[7v, N-(3,4-Dibromophenyl)-2-((6-((2,4-dioxothiazolidin-5-ylidene)-methyl)naphthalen-2-yl)oxy)acetamide]", "values": [{"measurement": "PPARγ transactivation activity (in words)", "setting": "PPARγ", "result": "poor activity"}, {"measurement": "HDAC8 inhibition (in words)", "setting": "HDAC8", "result": "not active"}]}, {"compound": "O=C(COc1ccc2cc(/C=C3/SC(=O)NC3=O)ccc2c1)Nc1nc2ccccc2s1", "note": "[7w, N-(Benzo[d]thiazol-2-yl)-2-((6-((2,4-dioxothiazolidin-5-ylidene)-methyl)naphthalen-2-yl)oxy)acetamide]", "values": [{"measurement": "potency toward HDAC4 over HDAC8 (from IC50 values)", "setting": "HDAC4", "result": "at least 2 fold"}]}, {"compound": "Cc1cccc2sc(NC(=O)COc3ccc4cc(/C=C5/SC(=O)NC5=O)ccc4c3)nc12", "note": "[7x, 2-((6-((2,4-Dioxothiazolidin-5-ylidene)methyl)naphthalen-2-yl)-oxy)-N-(4-methylbenzo[d]thiazol-2-yl)acetamide]", "values": [{"measurement": "potency toward HDAC4 over HDAC8 (from IC50 values)", "setting": "HDAC4", "result": "at least 2 fold"}]}, {"compound": "CCOc1ccc2nc(NC(=O)COc3ccc4cc(/C=C5/SC(=O)NC5=O)ccc4c3)sc2c1", "note": "[7y, 2-((6-((2,4-Dioxothiazolidin-5-ylidene)methyl)naphthalen-2-yl)-oxy)-N-(6-ethoxybenzo[d]thiazol-2-yl)acetamide]", "values": [{"measurement": "potency toward HDAC4 over HDAC8 (from IC50 values)", "setting": "HDAC4", "result": "at least 2 fold"}]}, {"compound": "CCc1ccc(CCOc2ccc(CC3SC(=O)NC3=O)cc2)nc1", "note": "(stereo not shown) [Pioglitazone, reference compound]", "values": [{"measurement": "cytotoxicity at 50 μM, CEM (printed in CC50 column)", "setting": "[3]", "result": 0, "unit": "% @ 50 μM"}, {"measurement": "cytotoxicity at 50 μM, CEM (printed in CC50 column)", "setting": "[3]; listed as pioglitazone", "result": "no cytotoxic effect"}, {"measurement": "cytotoxicity at 10 μM, HeLa (printed in CC50 column)", "setting": "[4]; 10 μM, 72 h", "result": 0, "unit": "% @ 10 μM"}]}, {"compound": "COc1cccc2c1C(=O)c1c(O)c3c(c(O)c1C2=O)C[C@@](O)(C(=O)CO)C[C@@H]3O[C@H]1C[C@H](N)[C@H](O)[C@H](C)O1", "note": "[doxorubicin, reference compound]", "values": [{"measurement": "body weights of the mice", "setting": "[2]", "result": "not significantly affected"}]}]}
